Measured values published in patent publication US11607417B2, “Uses of celastrol in preventing and/or treating cholestatic liver disease and liver fibrosis” (KUNMING INSTITUTE OF BOTANY, THE CHINESE ACADEMY OF SCIENCES, priority 2017, dated 2023).
Values joined by “and” are separate entries in the source; they are usually repeats but may differ in a detail not shown here. Equal entries are not always repeated.

What was measured:
[1] = test system: TAA-induced cholestatic liver injury in FXR knockout mice; assay: Effect of FXR on celastrol activity in TAA model (Example 6); type: in vivo, FXR knockout mice (C57BL/6J as background)
From the text: The same experimental method of Example 2 was used, wherein the experimental animals were FXR knockout mice (C57BL/6J as background), and the FXR knockout mice were presented by Frank J. Gonzalez, a researcher of the Cancer Institute of National Institutes of Health, USA.

[2] = test system: ANIT-induced cholestatic liver injury; assay: ANIT-induced mouse cholestatic liver injury (Example 1); type: in vivo, C57BL/6 mice
Description: A total of 18 male C57BL/6 mice were divided into three groups: blank group (n=6); model group (n=6); treatment group (n=6).
Celastrol was dissolved in a solvent to obtain a celastrol solution at a concentration of 2 mg/mL, wherein the solvent consisted of 1% DMSO, 2% Tween 80, and 97% water (v:v:v). For intragastrical administration, the dosage of celastrol was 10 mg/kg·d. ANIT was dissolved in corn oil to obtain a corn oil solution of ANIT at a concentration of 15 mg/mL, and the dosage of ANIT for intragastrical administration was 75 mg/kg.
The treatment group was intragastrically administered with the celastrol solution at a dosage of 10 mg/kg·d for five consecutive days. At the same time, the blank group and the model group were intragastrically administered with the same dosage of a solvent, wherein the solvent consisted of 1% DMSO, 2% Tween 80 and 97% water (v:v:v), and the solvent was administrated for five consecutive days.
On the third day of administration, ANIT model was established. 4 Hours after administration with the solvent or celastrol solution, the model group and the treatment group were respectively intragastrically administered with the ANIT corn oil solution to induce cholestatic liver injury at a dosage of 75 mg/kg for single administration, and the blank group was fed with an equal dosage of corn oil. After the model was established, the treatment group was continuously administrated with the celastrol solution, and the blank group and the model group was continuously administrated with the same dosage of solvent.
48 Hours after the model was established, the mice were sacrificed by CO2 anesthesia, and mouse livers and plasma samples were taken. The eyeballs of the mice were taken for blood collection. The plasma samples were placed on ice for 1-2 hours, centrifuged at 4000 g for 5 minutes at 4° C., and the supernatant was taken to determine the plasma biochemical indicators, the levels of ALT, AST and ALP.
At the same time, plasma samples were prepared: 10 μL of plasma sample was taken, mixed with 190 μL of 67% (v/v) acetonitrile (containing 5 μM internal standard chlorpropamide), centrifuged at 18000 g for 20 minutes at 4° C., and the supernatant was taken for sample injection.
Liver samples were prepared: 100 mg of liver samples were mixed well with 1 mL of 50% (v/v) acetonitrile (containing 5 μM internal standard chlorpropamide), shaken for 20 minutes at room temperature, and then centrifuged at 18000 g for 20 minutes at 4° C. Thereafter, 200 μL of the supernatant was taken and added with 200 μL of pure acetonitrile, vortexed for 1 minute, centrifuged at 18000 g for 20 minutes at 4° C., and the supernatant was taken for sample injection.
The liquid chromatography conditions were as follows: the injection volume was 5 μL; the column temperature was 45° C.; the flow rate of mobile phase was 0.3 mL/min; the gradient elution was that acetonitrile concentration changed from 2% to 98% during 16 minutes of operation, wherein the mobile phase (water/acetonitrile solution) contained 0.01% formic acid. The elution procedure was as follows: during 0-12th minute, the acetonitrile concentration changed from 2% to 98% at a constant rate; during 12-14th minute, the acetonitrile concentration was maintained at 98%; during 14-14.1th minute, the acetonitrile concentration changed from 98% to 2%; during 14.1-16th minute, the acetonitrile concentration was maintained at 2%. Mass spectrometry conditions were as follows: the temperature of dry gas was 350° C., the pressure of nebulizer was 35 psi, and the voltage of capillary was 3.5 kV.
Part of the collected mouse liver tissue was fixed overnight in formalin and tissue sections were stained with hematoxylin and eosin (H&E).

[3] = test system: TAA-induced liver fibrosis; assay: TAA-induced liver fibrosis in mice (Example 7); type: in vivo, C57BL/6 mice; settings: three times per week from second week, TAA 6 weeks
Description: A total of 30 male C57BL/6 mice were divided into three groups: blank group (n=10); TAA liver fibrosis group (n=10); treatment group (n=10).
Celastrol was dissolved in a solvent to obtain a celastrol solution at a concentration of 2 mg/mL, wherein the solvent consisted of 1% DMSO, 2% Tween 80, and 97% water (v:v:v); for intragastrical administration, the dosage of celastrol was 10 mg/kg/time, three times per week, and the administration was absent in the first week. TAA was dissolved in 0.9% NaCl solution to prepare a NaCl solution of TAA at a concentration of […], and the dosage for intraperitoneal administration was 100 mg/kg/time in the first week and 160 mg/kg/time in the second to sixth week, three times per week.
The model group and the treatment group were administrated with TAA three times per week, and administered every other day. The dosage of TAA was 100 mg/kg each time during the first week. From the second week onwards, the dosage of TAA administered to the model group and the treatment group was changed to 160 mg/kg each time. The blank group was given an equal dosage of NaCl solution.
The treatment group was administrated with celastrol from the second week, in which celastrol at a dosage of 10 mg/kg was administered 1 hour after administration with TAA. The blank group and the model group were administrated with an equal dosage of solvent (1% DMSO, 2% Tween 80, and 97% water (v: v: v)).
Six weeks later, mice were sacrificed by CO2 anesthesia, and mouse plasma samples and liver samples were collected. The eyeballs of the mice were taken for blood collection. The plasma samples were placed on ice for 1-2 hours, centrifuged at 4000 g for 5 minutes at 4° C., and the supernatants of plasma samples were taken to determine the plasma biochemical indicators, the levels of ALT, AST, and ALP.
Part of the collected mouse liver tissue was fixed overnight in formalin, and tissue sections were stained with hematoxylin and eosin (H&E).

[4] = celastrol 10 mg/kg·d intragastric 5 days, ANIT 75 mg/kg on day 3, 48 h after ANIT, n=6
[5] = celastrol 10 mg/kg·d intragastric 5 days, ANIT 75 mg/kg, 48 h after ANIT, n=6
[6] = celastrol 10 mg/kg/time, P<0.05, FIG. 7D

SMILES: CC1=C(O)C(=O)C=C2C1=CC=C1[C@@]2(C)CC[C@@]2(C)[C@@H]3C[C@](C)(C(=O)O)CC[C@]3(C)CC[C@]12C [celastrol, Celastrol]
- Levels of bile acids in plasma vs model group ([1]; co-MCA, DCA, TCA, THDCA/TUDCA, TCDCA, method of Example 2, FIG. 6E): no significant decrease
- H&E staining of liver tissue ([1]; method of Example 2, TAA model, FIG. 6C): a severe necrosis of liver cells also occurred
- AST level in plasma vs model group ([1]; method of Example 2, TAA model, FIG. 6D): no significant decrease
- Levels of bile acids in plasma vs ANIT model group ([2]; CA, DCA, TβMCA/TαMCA, TCA, THDCA/TUDCA, celastrol 10 mg/kg·d, FIG. 1D): significantly lower
- Liver weight of mouse when sacrificed [2, 4]: 1.01 g and 1.01 ± 0.05 g
- Liver weight/body weight [2, 4]: 4.66% and 4.66 ± 0.23 %
- ALP in mouse plasma [2, 5]: 27.3 ± 3.7 U/l
- ALT in mouse plasma [2, 5]: 54.0 ± 36.4 U/l
- AST in mouse plasma [2, 5]: 72.0 ± 34.4 U/l
- H&E staining of mouse liver tissue ([2]; celastrol 10 mg/kg·d intragastric, ANIT model, FIG. 1C): no obvious damage
- Levels of bile acids in liver vs ANIT model group ([2]; ω-MCA, β-MCA, CA, DCA, TβMCA/TαMCA, TCA, GCA, TLCA, celastrol 10 mg/kg·d, FIG. 1E): significantly lower
- H&E staining: liver tissue damage and liver morphology ([3]; celastrol 10 mg/kg/time intragastric, n=10, FIG. 7C): reduced and the liver morphology was also significantly recovered
- ALT level in plasma vs model group [3, 6]: significantly lower
- AST level in plasma vs model group [3, 6]: significantly lower
